Among the data in patent publication US12371428B2 (Exelixis, Inc., priority 2019, dated 2025) are IC50 values, retold here.

Where two headings read alike, the source gives them in different places.

Test [1] has as its target Human MET (residues 956-1390) (Homo sapiens (Human), UniProt P08581). In words: Human Met kinase assay, HTRF KinEase (Example D-2). The format is biochemical. Conditions: read-out: c-Met IC50. A digest of the protocol:
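IC50 values come from a 4-parameter logistic fit of the […] fluorescence ratio, set between DMSO (100%) and reference compound at 1 μM (0%). Reactions held MET 956-1390 at 0.1 ng/well, ATP at Km, biotinylated peptide, 5 mM MgCl2, 1 mM MnCl2, 1 mM DTT and 3% DMSO, and ran 40 min at room temperature before streptavidin-XL665/Eu-antibody detection.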
In general terms: In TR-FRET formats the signal depends on donor and acceptor labels being close together.

Test [2] has as its target Met (phospho-Met, HGF-stimulated PC-3 prostate cancer cells) (Homo sapiens (Human), UniProt P08581). In words: Met autophosphorylation ELISA in PC-3 cells (Example F). The format is cell-based. Conditions: cellular activity; Met autophosphorylation ELISA in PC-3 cells; read-out: c-Met IC50. A digest of the protocol: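 IC50 values derive from a 4-parameter logistic fit of phospho-Met (panTyr) sandwich ELISA signals in PC-3 lysates, scaled between DMSO and reference-inhibitor wells. Cells, starved 3 h in serum-free medium, had 1 h compound exposure (8 doses, 0.3% DMSO) before 10 min stimulation with 100 ng/mL HGF.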

Where [3] appears, read: protocol of Example D-2 (other compounds).

Human MET (residues 956-1390), sequence (P08581 956-1390): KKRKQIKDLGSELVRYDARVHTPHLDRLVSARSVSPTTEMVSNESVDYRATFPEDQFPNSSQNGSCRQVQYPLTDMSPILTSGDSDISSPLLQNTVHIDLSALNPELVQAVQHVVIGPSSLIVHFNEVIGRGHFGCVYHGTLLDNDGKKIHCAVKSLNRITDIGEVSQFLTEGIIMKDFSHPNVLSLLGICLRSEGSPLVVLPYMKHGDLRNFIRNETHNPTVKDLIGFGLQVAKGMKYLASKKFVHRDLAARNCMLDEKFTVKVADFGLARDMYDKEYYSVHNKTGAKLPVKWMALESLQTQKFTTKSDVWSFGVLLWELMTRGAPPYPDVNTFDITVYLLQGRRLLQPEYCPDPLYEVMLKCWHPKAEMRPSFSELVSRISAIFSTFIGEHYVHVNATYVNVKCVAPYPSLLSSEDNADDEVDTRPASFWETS
Met (phospho-Met, HGF-stimulated PC-3 prostate cancer cells), sequence (P08581 25-1390): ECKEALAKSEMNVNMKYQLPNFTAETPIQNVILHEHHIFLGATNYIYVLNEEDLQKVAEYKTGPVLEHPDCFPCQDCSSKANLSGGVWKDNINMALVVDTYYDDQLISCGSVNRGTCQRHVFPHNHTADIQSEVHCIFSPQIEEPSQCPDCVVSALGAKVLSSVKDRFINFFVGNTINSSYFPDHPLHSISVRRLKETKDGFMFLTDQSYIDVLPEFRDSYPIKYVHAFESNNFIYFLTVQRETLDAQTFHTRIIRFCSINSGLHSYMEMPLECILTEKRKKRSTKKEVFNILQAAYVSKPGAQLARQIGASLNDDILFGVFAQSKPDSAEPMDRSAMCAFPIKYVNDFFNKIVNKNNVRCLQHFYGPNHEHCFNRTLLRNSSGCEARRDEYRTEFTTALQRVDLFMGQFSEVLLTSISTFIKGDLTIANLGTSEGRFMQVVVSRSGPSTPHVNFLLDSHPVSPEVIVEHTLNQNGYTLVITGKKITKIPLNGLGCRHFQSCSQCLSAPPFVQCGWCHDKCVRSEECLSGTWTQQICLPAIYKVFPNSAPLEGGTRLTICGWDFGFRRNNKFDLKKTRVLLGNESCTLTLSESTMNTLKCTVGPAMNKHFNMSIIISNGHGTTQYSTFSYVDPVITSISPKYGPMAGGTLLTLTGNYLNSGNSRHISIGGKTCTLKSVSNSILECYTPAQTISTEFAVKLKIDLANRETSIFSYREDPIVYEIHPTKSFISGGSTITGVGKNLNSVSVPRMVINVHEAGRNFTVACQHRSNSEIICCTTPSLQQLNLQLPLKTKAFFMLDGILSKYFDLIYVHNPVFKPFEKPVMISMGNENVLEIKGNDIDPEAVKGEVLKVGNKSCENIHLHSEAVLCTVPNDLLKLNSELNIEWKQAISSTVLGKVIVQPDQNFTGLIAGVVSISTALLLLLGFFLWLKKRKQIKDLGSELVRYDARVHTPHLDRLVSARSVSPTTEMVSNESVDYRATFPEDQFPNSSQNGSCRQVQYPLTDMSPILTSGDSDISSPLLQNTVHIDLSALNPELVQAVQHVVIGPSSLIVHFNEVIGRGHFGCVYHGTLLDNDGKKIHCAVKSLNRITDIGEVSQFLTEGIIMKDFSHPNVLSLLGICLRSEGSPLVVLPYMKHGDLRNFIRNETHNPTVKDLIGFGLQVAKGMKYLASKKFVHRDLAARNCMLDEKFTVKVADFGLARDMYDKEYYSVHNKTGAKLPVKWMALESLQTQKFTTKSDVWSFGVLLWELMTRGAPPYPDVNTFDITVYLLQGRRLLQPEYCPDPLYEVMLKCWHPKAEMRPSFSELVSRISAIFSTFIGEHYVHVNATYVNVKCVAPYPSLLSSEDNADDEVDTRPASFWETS

For the compound `C=C(C)c1cnc2c(Oc3ccc(NC(=O)c4c(C)nc(C)c(-c5ccc(F)cc5)c4O)cc3)ccnc2c1` [Compound 455, 5-(4-fluorophenyl)-4-hydroxy-2,6-dimethyl-N-[4-[(7-prop-1-en-2-yl-1,5-naphthyridin-4-yl)oxy]phenyl]pyridine-3-carboxamide], the IC50 in test [1] (protocol of Example D-2) and in test [2] was under 100 nM each time.

Regarding `COc1cnc2c(Oc3ccc(NC(=O)c4cn(C)c(C)c(-c5ccc(F)cc5C)c4=O)cc3)ccnc2c1` [Compound 187, 5-(4-Fluoro-2-methylphenyl)-N-[4-[(7-methoxy-1,5-naphthyridin-4-yl)oxy]phenyl]-1,6-dimethyl-4-oxopyridine-3-carboxamide], the half-maximal inhibitory concentration (IC50) in test [1] (setting [3]) and in test [2] was under 100 nM each time.

In the case of `COc1cc2nccc(Oc3ccc(NC(=O)c4cn(C)c(CF)c(-c5ccc(F)cc5)c4=O)cc3)c2nc1OC` [Compound 560, N-[4-[(6,7-Dimethoxy-1,5-naphthyridin-4-yl)oxy]phenyl]-6-(fluoromethyl)-5-(4-fluorophenyl)-1-methyl-4-oxopyridine-3-carboxamide], the IC50 in test [1] (protocol of Example D-2) and in test [2] was under 100 nM in each case.

As to `COCCOc1nc2c(Oc3ccc(NC(=O)c4cn(C)c(CF)c(-c5ccc(F)cc5)c4=O)cc3F)ccnc2cc1OC` [Compound 557, N-[3-Fluoro-4-[[7-methoxy-6-(2-methoxyethoxy)-1,5-naphthyridin-4-yl]oxy]phenyl]-6-(fluoromethyl)-5-(4-fluorophenyl)-1-methyl-4-oxopyridine-3-carboxamide], the IC50 in test [1] (protocol of Example D-2) and in test [2] was under 100 nM each time.

Consider `CCn1cc(C(=O)Nc2ccc(Oc3ccnc4cc(OC)c(OC)nc34)c(F)c2)c(=O)c(-c2ccc(F)cc2)c1CF` [Compound 562, N-[4-[(6,7-Dimethoxy-1,5-naphthyridin-4-yl)oxy]-3-fluorophenyl]-1-ethyl-6-(fluoromethyl)-5-(4-fluorophenyl)-4-oxopyridine-3-carboxamide], for which the IC50 is 100 to 300 nM in test [1] (protocol of Example D-2) and under 100 nM in test [2].

As to `COc1cc2nccc(Oc3ccc(NC(=O)c4cnc(SC(C)C)n(-c5ccc(F)cc5)c4=O)cc3)c2cc1OC` [Compound 539, N-[4-(6,7-dimethoxyquinolin-4-yl)oxyphenyl]-1-(4-fluorophenyl)-6-oxo-2-propan-2-ylsulfanylpyrimidine-5-carboxamide], the IC50 in test [1] (protocol of Example D-2) was 100 to 300 nM; in test [2], under 100 nM.

With `COc1nc2c(Oc3ccc(NC(=O)c4cnc(C)c(-c5ccc(F)cc5)c4O)cc3F)ccnc2cc1C` [Compound 458, N-[3-fluoro-4-[(6-methoxy-7-methyl-1,5-naphthyridin-4-yl)oxy]phenyl]-5-(4-fluorophenyl)-4-hydroxy-6-methylpyridine-3-carboxamide], the concentration for half-maximal inhibition (IC50) in test [1] (protocol of Example D-2) was 100 to 300 nM; in test [2] it was under 100 nM.

As to `Cc1cc(F)ccc1-c1c(C)nc(C)c(C(=O)Nc2ccc(Oc3ccnc4cccnc34)c(F)c2)c1O` [Compound 505, 5-(4-fluoro-2-methylphenyl)-N-[3-fluoro-4-(1,5-naphthyridin-4-yloxy)phenyl]-4-hydroxy-2,6-dimethylpyridine-3-carboxamide], the IC50 in test [1] (protocol of Example D-2) and in test [2] was under 100 nM each time.

In the case of `COc1cnc2c(Oc3ccc(NC(=O)c4cc(C)nn(-c5ccc(F)cc5)c4=O)cc3)ccnc2c1` [Compound 522, 2-(4-fluorophenyl)-N-[4-[(7-methoxy-1,5-naphthyridin-4-yl)oxy]phenyl]-6-methyl-3-oxopyridazine-4-carboxamide], the IC50 is 100 to 300 nM in test [1] (protocol of Example D-2) and under 100 nM in test [2].

In the case of `COc1cc2nccc(Oc3ccc(NC(=O)c4c(C)nc(C)c(-c5ccc(F)cc5CO)c4O)cc3F)c2nc1OC` [Compound 518, N-[4-[(6,7-dimethoxy-1,5-naphthyridin-4-yl)oxy]-3-fluorophenyl]-5-[4-fluoro-2-(hydroxymethyl]phenyl]-4-hydroxy-2,6-dimethylpyridine-3-carboxamide], the IC50 in test [1] (protocol of Example D-2) and in test [2] was under 100 nM in each case.

Consider `C=C(C)c1cnc2c(Oc3ccc(NC(=O)c4cnc(C)c(-c5ccc(F)cc5C)c4O)cc3)ccnc2c1` [Compound 448, 5-(4-fluoro-2-methylphenyl)-4-hydroxy-6-methyl-N-[4-[(7-prop-1-en-2-yl-1,5-naphthyridin-4-yl)oxy]phenyl]pyridine-3-carboxamide], for which the half-maximal inhibitory concentration (IC50) in test [1] (protocol of Example D-2) and in test [2] was under 100 nM in each case.

For `COc1cc2nccc(Oc3ccc(NC(=O)c4cn(CC(F)(F)F)c(C)c(-c5ccc(F)cc5)c4=O)cc3)c2cc1OC` [Compound 260, N-[4-(6,7-Dimethoxyquinolin-4-yl)oxyphenyl]-5-(4-fluorophenyl)-6-methyl-4-oxo-1-(2,2,2-trifluoroethyl)pyridine-3-carboxamide], the IC50 in test [1] (setting [3]) was under 100 nM; in test [2] it was 100 to 300 nM.

As for `COc1cc2nccc(Oc3ccc(NC(=O)c4cc(C)nn(-c5ccc(F)cc5)c4=O)cc3)c2nc1OC` [Compound 520, N-[4-[(6,7-dimethoxy-1,5-naphthyridin-4-yl)oxy]phenyl]-2-(4-fluorophenyl)-6-methyl-3-oxopyridazine-4-carboxamide], the IC50 in test [1] (protocol of Example D-2) and in test [2] was under 100 nM each time.

Take `COc1cc2nccc(Oc3ccc(NC(=O)c4nn(C)c(C)c(-c5ccc(F)cc5C)c4=O)cc3F)c2nc1OC` [Compound 512, N-[4-[(6,7-dimethoxy-1,5-naphthyridin-4-yl)oxy]-3-fluorophenyl]-5-(4-fluoro-2-methylphenyl)-1,6-dimethyl-4-oxopyridazine-3-carboxamide]: the IC50 in test [1] (protocol of Example D-2) and in test [2] was under 100 nM in each case.

Take `Cc1ccc(C(=O)Nc2ccc(Oc3ccnc4cc(O)cnc34)c(F)c2)c(=O)n1-c1ccc(F)cc1` [Compound 551, N-[3-Fluoro-4-[(7-hydroxy-1,5-naphthyridin-4-yl)oxy]phenyl]-1-(4-fluorophenyl)-6-methyl-2-oxopyridine-3-carboxamide]: the IC50 in test [1] (protocol of Example D-2) and in test [2] was under 100 nM each time.

As to `COc1cnc2c(Oc3ccc(NC(=O)c4cc(C)nn(-c5ccc(F)cc5)c4=O)cc3F)ccnc2c1` [Compound 521, N-[3-fluoro-4-[(7-methoxy-1,5-naphthyridin-4-yl)oxy]phenyl]-2-(4-fluorophenyl)-6-methyl-3-oxopyridazine-4-carboxamide], the IC50 was under 100 nM in test [1] (protocol of Example D-2) and 100 to 300 nM in test [2].

On to `C=C(C)c1cnc2c(Oc3ccc(NC(=O)c4c(C)nc(C)c(-c5ccc(F)cc5)c4O)cc3F)ccnc2c1` [Compound 451, 5-(4-fluorophenyl)-N-[3-fluoro-4-[(7-prop-1-en-2-yl-1,5-naphthyridin-4-yl)oxy]phenyl]-4-hydroxy-2,6-dimethylpyridine-3-carboxamide], for which the half-inhibitory concentration (IC50) in test [1] (protocol of Example D-2) and in test [2] was under 100 nM in each case.

On to `C=C(C)c1cnc2c(Oc3ccc(NC(=O)c4cnc(C)c(-c5ccc(F)cc5C)c4O)cc3F)ccnc2c1` [Compound 450, 5-(4-fluoro-2-methylphenyl)-N-[3-fluoro-4-[(7-prop-1-en-2-yl-1,5-naphthyridin-4-yl)oxy]phenyl]-4-hydroxy-6-methylpyridine-3-carboxamide], for which the IC50 in test [1] (protocol of Example D-2) and in test [2] was under 100 nM throughout.

With `COCCOc1cnc2c(Oc3ccc(NC(=O)c4ccc(C)n(-c5ccc(F)cc5)c4=O)cc3F)ccnc2c1` [Compound 552, N-[3-Fluoro-4-[[7-(2-methoxyethoxy)-1,5-naphthyridin-4-yl]oxy]phenyl]-1-(4-fluorophenyl)-6-methyl-2-oxopyridine-3-carboxamide], the IC50 in test [1] (protocol of Example D-2) and in test [2] was under 100 nM in each case.

Turning to `C=C(C)c1cnc2c(Oc3ccc(NC(=O)c4c(C)cc(C)n(-c5ccc(F)cc5)c4=O)cc3F)ccnc2c1` [Compound 457, 1-(4-fluorophenyl)-N-[3-fluoro-4-[(7-prop-1-en-2-yl-1,5-naphthyridin-4-yl)oxy]phenyl]-4,6-dimethyl-2-oxopyridine-3-carboxamide], the IC50 in test [1] (protocol of Example D-2) and in test [2] was under 100 nM throughout.

As for `COCc1nc(C)c(-c2ccc(F)cc2C)c(O)c1C(=O)Nc1ccc(Oc2ccnc3ccc(OC)nc23)cc1` [Compound 516, 5-(4-fluoro-2-methylphenyl)-4-hydroxy-2-(methoxymethyl)-N-[4-[(6-methoxy-1,5-naphthyridin-4-yl)oxy]phenyl]-6-methylpyridine-3-carboxamide], the half-maximal inhibitory concentration (IC50) in test [1] (protocol of Example D-2) and in test [2] was under 100 nM each time.

For `COc1cc2c(Oc3ccc(NC(=O)c4ccc(C)n(-c5ccc(F)cc5)c4=O)cc3F)ccnc2cn1` [Compound 494, N-[3-fluoro-4-[(6-methoxy-1,7-naphthyridin-4-yl)oxy]phenyl]-1-(4-fluorophenyl)-6-methyl-2-oxopyridine-3-carboxamide], the IC50 in test [1] (protocol of Example D-2) and in test [2] was under 100 nM throughout.

Turning to `COc1cc2nccc(Oc3ccc(NC(=O)c4c(C)n(C)c(C)c(-c5ccc(F)cc5)c4=O)cc3)c2nc1OC` [Compound 523, N-[4-[(6,7-dimethoxy-1,5-naphthyridin-4-yl)oxy]phenyl]-5-(4-fluorophenyl)-1,2,6-trimethyl-4-oxopyridine-3-carboxamide], the IC50 in test [1] (protocol of Example D-2) and in test [2] was under 100 nM in each case.

Turning to `CCc1nc(C)c(-c2ccc(F)cc2C)c(O)c1C(=O)Nc1ccc(Oc2ccnc3ccc(OC)nc23)cc1` [Compound 526, 2-ethyl-5-(4-fluoro-2-methylphenyl)-4-hydroxy-N-[4-[(6-methoxy-1,5-naphthyridin-4-yl)oxy]phenyl]-6-methylpyridine-3-carboxamide], the IC50 is 100 to 300 nM in test [1] (protocol of Example D-2) and under 100 nM in test [2].

As usually defined, the IC50 is the midpoint of a concentration-inhibition curve.
